Reference: patent publication US11833228B2, “Fluorinated beta-hydroxybutyric acids for PET imaging” (The Governors of the University of Alberta, priority 2019, dated 2023)

Columns and labels:
[1] = system: MDA-MB231 breast cancer xenografts; assay: Dynamic PET imaging of radiotracer uptake in MDA-MB231 tumor-bearing mice; format: in vivo, NIH-III nude mice; details: for SUV mean, Harderian glands / SUV mean, brain / SUV mean, heart / SUV mean, joint / SUV mean, kidneys / SUV mean, liver / SUV mean, muscle / SUV mean, spine / SUV mean, tumor: 60 min
Description: (§1) Normal BALB/c mice or breast cancer xenografts were used for the PET imaging experiments. Human MDA-MB231 cells (3-5×10^6 cells in 100 μL PBS) were injected subcutaneously into 8-12 weeks old anesthetized female NIH-III nude mice (Charles River, Saint-Constant, QC, Canada). Tumors were grown for 3-4 weeks, reaching sizes of 300-500 mm^3. For fasting experiments, the food was removed from the mice for 24 h prior to the PET experiment.
(§2) Mice were anesthetized with isoflurane (40% O2/60% N2) and their body temperature was kept constant at 37° C. They were positioned and immobilized in prone position into the centre of the field of view of an INVEON® PET scanner (Siemens Preclinical Solutions, Knoxville, TN, USA). A transmission scan for attenuation correction was not acquired. Radioactivity present in the injection solution (0.5 mL insulin syringe) was determined using a dose calibrator (Atomlab™ 300, Biodex Medical Systems, New York, NY, USA). After the emission scan was started, radioactivity (4-8 MBq in 100-150 μL saline) was injected with a delay of ˜15 s through a tail vein catheter. Dynamic PET data acquisition was performed in 3D list mode for 60 min. Dynamic list mode data were sorted into sinograms with 54 time frames (10×2 s, 8×5 s, 6×10 s, 6×20 s, 8×60 s, 10×120 s, 5×300 s). Frames were reconstructed using the maximum a posteriori (MAP) reconstruction mode. No correction for partial volume effects was performed. Image files were further processed using the ROVER v2.0.51 software (ABX GmbH, Radeberg, Germany). Masks defining 3D ROI were set and defined by 50% thresholding. Mean standardized uptake values [SUV=(activity/mL tissue)/(injected activity/body weight) were calculated for each ROI. Time-activity curves (TAC) were generated from the dynamic scans using GraphPad® Prism 5.04 (GraphPad Software, La Jolla, CA, USA).
(§3) All semi-quantified PET data are expressed as means±SEM. Where applicable, statistical differences were tested by unpaired Student's t test and were considered significant for p<0.05 (*), p<0.01 (**) and p<0.001 (***).

normal BALB/c mice = assay: Dynamic PET scans of normal BALB/c mice; format: in vivo; details: dynamic PET over 30 minutes; for clearance pathway: FIG. 4A; for heart and brain uptake and retention: FIG. 4A-C
Description: as §1
as §2, with “Dynamic PET data acquisition was performed in 3D list mode for 60 min.” left out
as §3

[2] = system: subcutaneous MCF-7 breast cancer tumor; assay: Dynamic PET imaging of radiotracer uptake in MCF-7 tumor-bearing mice; format: in vivo
Description: as §2, §3

Structure (SMILES) | SUV mean, Harderian glands ([1]; n=3, 24 h fasted) | SUV mean, brain ([1]; n=3, 24 h fasted) | SUV mean, heart ([1]; n=3, 24 h fasted) | SUV mean, joint ([1]; n=3, 24 h fasted) | SUV mean, kidneys ([1]; n=3, 24 h fasted) | SUV mean, liver ([1]; n=3, 24 h fasted) | SUV mean, muscle ([1]; n=3, 24 h fasted) | SUV mean, spine ([1]; n=3, 24 h fasted) | SUV mean, tumor ([1]; n=3, 24 h fasted) | SUV mean, Harderian glands ([1]; n=3, fed (unfasted)) | SUV mean, brain ([1]; n=3, fed (unfasted)) | SUV mean, heart ([1]; n=3, fed (unfasted)) | SUV mean, joint ([1]; n=3, fed (unfasted)) | SUV mean, kidneys ([1]; n=3, fed (unfasted)) | SUV mean, liver ([1]; n=3, fed (unfasted)) | SUV mean, muscle ([1]; n=3, fed (unfasted)) | SUV mean, spine ([1]; n=3, fed (unfasted)) | SUV mean, tumor ([1]; n=3, fed (unfasted)) | clearance pathway (normal BALB/c mice) | heart and brain uptake and retention (normal BALB/c mice) | also measured
O=C(O)C[C@H](O)C[18F] [(S)[^18F]FBHB, (S)-[^18F]γ-fluoro-β-hydroxybutyric acid] | 1.15 ± 0.02 | 1.17 ± 0.02 * | 1.05 ± 0.02 * | 1.07 ± 0.08 | 1.38 ± 0.16 | 0.80 ± 0.02 * | 0.60 ± 0.03 | 1.13 ± 0.04 | 0.95 ± 0.04 | 1.10 ± 0.01 | 1.08 ± 0.02 | 0.96 ± 0.01 | 1.10 ± 0.08 | 1.44 ± 0.05 | 0.74 ± 0.01 | 0.57 ± 0.01 | 1.10 ± 0.07 | 0.91 ± 0.02 | renal clearance pathway | moderate heart and brain uptake and retention | visibility of xenograft tumors by PET imaging ([1]; intravenous administration, preliminary studies, FIGS. 8A-B and 9A-C): xenograft tumors were visible by PET imaging; tumor uptake compared with muscle uptake, comparison of isomers ([1]; subcutaneous MDA-MB-231 xenograft, FIG. 8B): higher uptake; brain retention, comparison of isomers (normal BALB/c mice; FIG. 4A lower panel): brain retention highest for the S isomer
O=C(O)C[C@@H](O)C[18F] [(R)[^18F]FBHB, (R)-[^18F]γ-fluoro-β-hydroxybutyric acid] | 1.39 ± 0.11 ^n.s. | 1.02 ± 0.05 ^n.s. | 0.95 ± 0.03 ^n.s. | 1.58 ± 0.02 ^p=0.0501 | 2.36 ± 0.25 ^n.s. | 0.74 ± 0.02 ^n.s. | 0.54 ± 0.02 | 1.56 ± 0.03 * | 0.89 ± 0.05 * | 1.56 ± 0.13 | 0.91 ± 0.07 | 0.84 ± 0.09 | 1.30 ± 0.10 | 1.96 ± 0.17 | 0.66 ± 0.08 | 0.50 ± 0.05 | 1.39 ± 0.03 | 0.77 ± 0.06 | renal clearance pathway | moderate heart and brain uptake and retention | MDA-MB-231 tumor and muscle uptake, 24 hour fast versus fed state (time activity curves) ([1]; FIGS. 9B-C): statistically significant increase in uptake; tumor retention in mice fed a glucose-free, fructose-based diet (SUV ratio versus time) ([1]; MDA-MB231 tumors, FIG. 7): higher; retention in tumor tissue compared to muscle tissue ([1]; subcutaneous MDA-MB231 tumor, FIG. 3A, 3C): higher retention in tumor tissue as compared to muscle tissue; brain uptake after 24 hour fast versus fed (SUV ratio versus time) ([2]; MCF7 tumor-bearing mice, FIG. 6A): increased; heart uptake after 24 hour fast versus fed (SUV ratio versus time) ([2]; MCF7 tumor-bearing mice, FIG. 6B): increased; tumor retention after 24 hour fast versus fed (SUV ratio versus time) ([2]; MCF7 tumor-bearing mice, FIG. 6C): better tumor retention; retention in tumor tissue compared to muscle tissue ([2]; subcutaneous MCF-7 tumor, FIG. 3A-B): higher retention in tumor tissue as compared to muscle tissue
